One series has as its system anti-AG antibody. Briefly: Western analysis of H-Ras modified by FTase with aniline analogs, probed with Anti-AG. It counts as binding, rabbits. The note with it: H-Ras reacted with analog by FTase, FIG. 11A. Here is the method: (§1) Cells are harvested by scraping into 300 μl phosphate buffered saline containing protease inhibitor cocktail set 1 (calbiochem), followed by sonication on ice. Protein concentration is determined using a Bradford reagent kit (Pierce). The proteins from the FTase reaction mixtures or cell lysates are then separated using 12% SDS-polyacrylamide gels followed by transfer to nitrocellulose membranes. The membranes are incubated in blocking buffer PCT (see ELISA) for one hour at room temperature, after which the following steps are used: incubation with Anti-AG 1:1000 to 1:10,000 in PCT for one hour; 3×15 minute washes with vigorous shaking in PT buffer (see ELISA); incubation at room temperature one hour with goat anti-rabbit horseradish peroxidase-conjugated secondary antibody (Zymed) at a dilution of 1:20,000 in PCT buffer; and four 15 minute washes with PT buffer. The membranes are then subjected to enhanced chemiluminescence detection by incubation in 20 mL of detection buffer (Pierce Super Signal) for one minute.

The subject of the next series is anti-NAG antibodies. Briefly: Western analysis of H-Ras modified by FTase with aniline analogs, probed with Anti-NAG. It counts as binding, rabbits. The following applies: H-Ras reacted with analog by FTase, FIG. 11B.
Series [1] has as its target GGTaseI (Homo sapiens, UniProt P49354+P53609). Briefly: GGTaseI continuous spectrofluorometric assay with dansylated-GCaaX peptides. In kind it is biochemical. The note with it: for Substrate for GGTaseI: peptide not specified; for Substrate for GGTaseI with CVIL peptide: dansylated-GCVIL peptide; for Substrate for GGTaseI with CVIM peptide: dansylated-GCVIM peptide. The method, then: The kinetic constants Km^peptide and kcat with GGPP, and the analogs with each peptide are determined in triplicate measurements using a continuous spectrofluorometric assay adapted for a 96-well plate. The following assay components are assembled in individual wells of a 96-well plate and incubated at 30° C. for 20 minutes: 180 μL of assay butler (52 mM Tris-HCl, 12 mM MgCl2, 12 μM ZnCl2 pH 7.4), 40 μL of detergent (0.125% n-dodecyl-β-D-maltoside in assay buffer), 40 μL of reducing agent (50 mM DTT in assay buffer) 20 μL of GGPP or analog (200 μM in 25 mM NH4HCO3) and 20 μL of N-dansyl-GCaaX peptide (variable concentration). Fluorescence is detected using a time based scan at 30° C. for 120 minutes. The velocity of each reaction is determined by converting the rate of increase in fluorescence intensity units (FLU/s) to μM/s with equation 1. vi=(R·P)/(FMAX−FMIN) Equation 1
Where vi is the velocity of the reaction in μM/s. R is the rate of the reaction in FLU/s. P is equal to the concentration of modified product in μM (see below). FMAX is the fluorescence intensity of fully modified product. FMIN is the fluorescence of a reaction mixture that contained 20 μL of assay buffer in the place of GGTaseI. Complete modification of peptides is assumed when fluorescence stabilized for more than 10 minutes and is confirmed by RP-HPLC analysis of the reaction mixture.
Final analysis peptide concentrations are chosen based on preliminary determination of the Km^peptide with 0.5, 1, 5 and 10 μM dansyl-GCaaX concentrations (see below). The final analysis used 8 peptide concentrations which are: ⅙, ⅕, ¼, ½, ¾, 1, 2, and 3 times the estimated Km^peptide. The reaction is then initiated by the addition of 20 μL of GGTaseI (final 10 nM). Fluorescence enhancement is determined as described above.
Complete modification of peptides is assumed when fluorescence stabilized for more than 10 minutes and is confirmed by RP-HPLC analysis of the reaction mixture. […] Alternatively the extent of input peptide modified is determined by RP-HPLC analysis of the dansyl moiety peak absorbance corresponding to the unmodified and modified peptides. The percent of modified peptide relative to the total input peptide is used to calculate the concentration of product in the mixture.
The velocities of the reactions are plotted against the concentration of peptide and are fit to the Michaelis-Menten equation (Equation 2) to give the apparent kcat (appkcat) and Km^peptide (appKmpeptide) values. Where et is the total enzyme concentration and [Pep] is the total input peptide. The kcat/Km^peptide value is derived from a Lineweaver-Burke plot of the same data points. vi/et=(appkcat*[Pep])/(appKm^peptide+[Pep]) Equation 2

Series [2] deals with GGTaseI. Description: GGTaseI protein substrate modification of H-Ras. In kind it is biochemical. The following applies: relatively large amount of GGTaseI, Western blot FIG. 17A. Background: In western blotting, separated proteins are transferred to a membrane and probed.
The test system of series [3] is H460 (lung cancer cell line) and MCF7 (breast cancer cell line) cells. Briefly: Cell labeling with AFOH. It counts as cell-based. The note with it: 30 μM AFOH overnight, FIG. 17B. Here is the method: Plates are coated with poly-L-Lysine and seeded with in Dulbecco's modified Eagle's medium with 5% fetal bovine serum. The cells are then treated with DMSO as a vehicle, or 30 μM AFOH is added and incubated at 37° C. overnight. Medium is then removed and cells are extracted into 500 μL of RIPA buffer containing Protease Inhibitor cocktail I (calbiochem). The supernatant is removed and used for western blotting.
Protein concentration is determined using a Bradford reagent kit (Pierce) with 1:100 dilutions of the cell lysates. The proteins from the GGTaseI reaction mixtures or cell lysates are then separated using 12% SDS-polyacrylamide gels followed by transfer to nitrocellulose membranes. The membranes are incubated in blocking buffer PBS Casein and Tween buffer for one hour at room temperature, after which the following sequential steps are used: incubation with anti-AG or anti-NAG to 1:10,000 in PCT for one hour; 3×15 minute washes with vigorous shaking in PBS Tween buffer; incubation at room temperature one hour with goat anti-rabbit horseradish peroxidase-conjugated secondary antibody (Zymed) at a dilution of 1:20,000 in PCT buffer; and four 15 minute washes with PT buffer. The membranes are then subjected to enhanced chemiluminescene detection by incubation in 20 mL of detection buffer (Pierce Super Signal) for one minute.

For series [4], the target named is T1, FTase (Homo sapiens, UniProt P49354+P49356). Description: FTase catalyzed in vitro modification of RDJ2 and H-Ras. The following applies: bacterially expressed proteins, intact Ca1a2X motifs. It counts as biochemical. Here is the method: 2 μg of recombinant bacterially expressed RDJ2 is incubated with 20 μM AGPP or FPP and 5 μg FTase in 50 μL of TrisHCl buffer (pH=7.4). […] The reactions are incubated for 30 min at 37° C., boiled with SDS and PAGE performed using the protein concentrations indicated on the blots.

Series [5] addresses T1, FTase. The note with it: in vitro; cited from earlier work.
Series [6] concerns human embryonic kidney (HEK-293) cells. Briefly: Acute cytoxicity of anilinogeraniol in HEK-293 cells. In kind it is cell-based. The following applies: up to 100 μM, three days, relative to controls. From the text: Farnesol, geranylgeraniol and a number of farnesol analogues become incorporated into cellular proteins when added to the culture media of growing cells. See e.g., Crick, et al. (1995) Biochem Biophys Res Commun 211, 590-9; Crick, et al. (1997) Biochem Biophys Res Commun 237, 483-7. These compounds are thought to traverse the plasma membrane and act as a substrate for sequential kinase reactions to give FPP, GGPP or the diphosphate analogue which can be then be utilized by FTase or GGTaseI to appropriately modify cellular proteins. Thai, et al. (1999) Proc Natl Acad Sci U S A 96, 13080-5. The kinases involved in the phosphorylation reactions have been characterized in plants, but not in mammalian cells. […] See Chehade, et al. (2000) J. Org. Chem. 65, […]. It is thought that nilinogeraniol might also cross the plasma membrane of cells, be converted to the diphosphate and become incorporated into proteins by FTase. However, it is also possible that anilinogeraniol might be toxic to mammalian cells. Accordingly, the acute cytoxicity of anilinogeraniol is examined by incubating human embryonic kidney (HEK-293) cells with up to 100 μM anilinogeraniol for three days.

The subject of another series is HEK-293 cells. Description: AGOH labeling and FTI inhibition of label in HEK-293 cells. In kind it is cell-based, human. Here is the method:
Plates are coated with poly-L-Lysine and seeded with HEK-cells in Dulbecco's modified Eagle's medium with 5% fetal bovine serum. Cells are incubated in medium containing 30 μM lovostatin and 10 μM GGOH for 24 hrs. The media is poured off then replenished with media without lovostatin and GGOH and are treated with 3 μM FTI-277 (calbiochem), 20 μM GGTI-2147 (calbiochem) or no inhibitor and incubated at 37° C. for 1 hour. DMSO as a vehicle, or 100 μM AGOH is then added and incubated at 37° C. for two hours. Medium is then removed and cells are extracted into 300 μL PBS containing Protease Inhibitor cocktail set 1 (Calbiochem). The samples are sonicated and centrifuged for 5 minutes. The supernatant is removed and used for western blotting.
Cells are harvested by scraping into 300 μl phosphate buffered saline containing protease inhibitor cocktail set 1 (calbiochem), followed by sonication on ice. Protein concentration is determined using a Bradford reagent kit (Pierce). The proteins from the FTase reaction mixtures or cell lysates are then separated using 12% SDS-polyacrylamide gels followed by transfer to nitrocellulose membranes. […]

A further series concerns HEK-cells. Briefly: AGOH incorporation into unblocked cells. In kind it is cell-based, human. The note with it: 30 μM AGOH, no lovastatin blockade. The method, then:
Plates are coated with poly-L-Lysine and seeded with HEK-cells in Dulbecco's modified Eagle's medium with 5% fetal bovine serum. The cells ware then treated with DMSO as a vehicle, or 30 μM AGOH 5a is then added and incubated at 37° C. for the indicated time points. Medium is then removed and cells are extracted into 300 μL PBS containing Protease Inhibitor cocktail set 1 (Calbiochem). The samples are sonicated and centrifuged for 5 minutes. The supernatant is removed and used for western blotting.
as §1, with “The membranes are then subjected to enhanced chemiluminescence detection by incubation in 20 mL of detection buffer (Pierce Super Signal) for one minute.” left out

On to “meta-cyano-anilinogeranyl diphosphate [mCN-AGPP]”, for which, in the series with anti-AG antibody, the “Recognition of analog-modified H-Ras by anti-AG antibody” value is recorded as “able to cross-react”. Besides, the “Recognition of analog-modified H-Ras by anti-NAG antibodies” value in the series on anti-NAG antibodies was “recognized”.

Consider anilinofarnesyl diphosphate [AFPP], for which the “Substrate for GGTaseI” value on GGTaseI [1] is “both substrates”. Also, the “Incorporation of analog into H-Ras in vitro” value in the series with GGTaseI [2] is recorded as “incorporated into the protein”.

Take `CC(=CCO)CCC=C(C)CCC=C(C)CNc1ccccc1` [AFOH, Anilinofarnesiol]: the “AFOH incorporation into cellular proteins” value in [3] was “does appear to be incorporated into proteins”.

For the compound “para-cyano-anilinogeranyl diphosphate [pCN-AGPP]”, in the series with anti-NAG antibodies, the “Recognition of analog-modified H-Ras by anti-NAG antibodies” value is given as “recognized”.

With `C/C(=C\COP(=O)(O)OP(=O)(O)O)CC/C=C(\C)CNc1ccccc1` [AGPP, anilinogeranyl diphosphate], at FTase [4], the “FTase catalyzed in vitro modification of RDJ2 and Q61L H-Ras” value is “provided lipid thioether-linked proteins”. Moreover, at FTase [5], the “Transferable by FTase to a CVLS substrate” value is “transferable”.

As for `C/C(=C\CO)CC/C=C(\C)CNc1ccccc1` [AGOH, Anilinogeranyl alcohol], in [6], the Cell growth result was “no decrease in cell growth” and the Morphological changes entry is “no morphological changes”. For the same compound, the “Anilinogeranyl modified proteins detected with Anti-AG in cell extracts” value with HEK-293 cells (cells blocked with lovostatin and treated with GGOH, 100 μM AGOH, FIG. 12) is “numerous anilinogeranyl modified proteins”. For the same compound, the “Competition with endogenous pools of FPP” value with HEK-cells is “competitive with the endogenous pools of FPP”. Besides, the “Onset of anilinogeranyl incorporation into proteins” value in the series with HEK-cells (FIG. 14) is “within two hours”.

With `CC(=CCC/C(C)=C/COP(=O)(O)OP(=O)(O)O)CNc1ccc(F)cc1` [pF-AGPP, para-fluoro-anilinogeraniol diphosphate], in the series on anti-AG antibody, the “Recognition of analog-modified H-Ras by anti-AG antibody” value was “able to cross-react”.

On to “para-bromo-anilinogeranyl diphosphate [pBr-AGPP]”, for which, in the series with anti-AG antibody, the “Recognition of analog-modified H-Ras by anti-AG antibody” value is given as “able to cross-react”. The “Recognition of analog-modified H-Ras by anti-NAG antibodies” value in the series with anti-NAG antibodies is reported as “recognized”.

With `COC(=O)[C@H](CCSC)NC(=O)c1ccc(NC[C@@H](N)CS)cc1-c1ccccc1` [FTI-277, reference compound], the “Effect of inhibitor on anilinogeranyl modification of cellular proteins” value in the series on HEK-293 cells (cells incubated with AGOH, 3 μM FTI-277 or 20 μM GGTI-2147) is “no anilinogeranyl modified proteins are detected”.

Take `CC(=CCCC(C)=CCOP(=O)(O)OP(=O)(O)O)CCC=C(C)CNc1ccc([N+](=O)[O-])cc1` [NAFPP, pNO2-anilinofarnesyl diphosphate]: at GGTaseI [1], the “Substrate for GGTaseI with CVIL peptide” value is “are substrates when CVIL is the target”, the “Substrate for GGTaseI with CVIM peptide” value was “none of the AGPP analogs or NAFPP are substrates” and the “Substrate for GGTaseI” value is on record as “both substrates”. Besides, the “Incorporation of analog into H-Ras in vitro” value in the series on GGTaseI [2] is given as “incorporated into the protein”.

As for “ortho-fluoro-anilinogeranyl diphosphate [oF-AGPP]”, the “Recognition of analog-modified H-Ras by anti-AG antibody” value with anti-AG antibody was “able to cross-react”.

“meta-fluoro-anilinogeranyl diphosphate [mF-AGPP]”: the “Recognition of analog-modified H-Ras by anti-AG antibody” value in the series on anti-AG antibody was “able to cross-react”.

Regarding `CC(C)=CCC/C(C)=C/CC/C(C)=C/CC/C(C)=C/COP(=O)(O)OP(=O)(O)O` [GGPP, geranylgeranyl diphosphate, reference compound], on GGTaseI [1], the “Substrate for GGTaseI with CVIL peptide” value is given as “confirmed to be a substrate” and the “Substrate for GGTaseI with CVIM peptide” value is given as “confirmed to be a substrate”.

Take `C/C(=C\COP(=O)(O)OP(=O)(O)O)CC/C=C(\C)CNc1ccc([N+](=O)[O-])cc1` [NAGPP, para-nitro-anilinogeranyl diphosphate]: the “FTase catalyzed in vitro modification of RDJ2 and Q61L H-Ras” value at FTase [4] is “provided lipid thioether-linked proteins”.

Regarding “para-methyl-anilinogeranyl diphosphate [pMe-AGPP]”, the “Recognition of analog-modified H-Ras by anti-AG antibody” value with anti-AG antibody was “able to cross-react”.

In the case of “meta-methyl-anilinogeranyl diphosphate [mMe-AGPP]”, in the series on anti-AG antibody, the “Recognition of analog-modified H-Ras by anti-AG antibody” value was “able to cross-react”.

In the case of “meta-bromo-anilinogeranyl diphosphate [mBr-AGPP]”, the “Recognition of analog-modified H-Ras by anti-AG antibody” value with anti-AG antibody is on record as “able to cross-react”.
